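All cell lines were grown in 96-well plates and treated with compound for 48 hours. Abbreviation: GI50, concentration required for 50% inhibition of growth.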 Calls of active or inactive are those of the source. No stated cut-off is given here; in the data, active = GI50 up to about 1.1 µM and inactive = higher.
Columns and labels:
Assay in all cases: NCI-60 cell line screen, 48 h
[1] = system: T47D
[2] = system: Hs-578T
[3] = system: 786-0
[4] = system: HCT-15
[5] = system: MOLT-4
[6] = system: HCT-116
[7] = system: MDA-MB-231
[8] = system: K562
[9] = system: HOP-62
[10] = system: HT-29
[11] = system: SF-295
[12] = system: NCI/ADR-RES
[13] = system: EKVX
[14] = system: SNB-19
[15] = system: IGROV-1
[16] = system: DU-145
[17] = system: SF-268
[18] = system: SK-MEL-5
[19] = system: NCI-H460

SMILES | GI50 [1] | GI50 [2] | GI50 [3] | GI50 [4] [µM] | GI50 [5] | GI50 [6] | GI50 [7] | GI50 [8] | GI50 [9] | GI50 [10] | GI50 [11] | GI50 [12] | GI50 [13] | GI50 [14] | GI50 [15] | GI50 [16] | GI50 [17] | GI50 [18] | GI50 [19]
CC(C)CC1c2[nH]c3ccccc3c2C[C@H]2C(=O)NC(CCCCNC(=O)OC(C)(C)C)C(=O)N12 (some centres not stated) | 0.449 µM (active) | 2.7 µM (inactive) | 20.9 µM (inactive) | 31.8 | 11.8 µM (inactive) | 30 µM (inactive) | 17 µM (inactive) | 32 µM (inactive) | 56.2 µM (inactive) | 23.5 µM (inactive) | 12.3 µM (inactive) | 33.4 µM (inactive) | 51.9 µM (inactive) | 47.1 µM (inactive) | 37.1 µM (inactive) | 38 µM (inactive) | 21.4 µM (inactive) | 33.2 µM (inactive) | –
O=C(O)CC(Cc1ccccc1)C(=O)O (configuration not stated) | > 100 µM (inactive) | 50.5 µM (inactive) | 76.2 µM (inactive) | > 100 | > 100 µM (inactive) | > 100 µM (inactive) | – | > 100 µM (inactive) | > 100 µM (inactive) | > 100 µM (inactive) | > 100 µM (inactive) | > 100 µM (inactive) | > 100 µM (inactive) | > 100 µM (inactive) | > 100 µM (inactive) | > 100 µM (inactive) | > 100 µM (inactive) | > 100 µM (inactive) | > 100 µM (inactive)
Oc1nnc(-c2ccc(F)cc2)cc1-c1ccccc1 | 44.2 µM (inactive) | 48.3 µM (inactive) | 45.7 µM (inactive) | > 100 | > 100 µM (inactive) | > 100 µM (inactive) | > 100 µM (inactive) | > 100 µM (inactive) | – | > 100 µM (inactive) | 40.4 µM (inactive) | > 100 µM (inactive) | 42.9 µM (inactive) | 44.8 µM (inactive) | 72.8 µM (inactive) | 57.5 µM (inactive) | 46.1 µM (inactive) | > 100 µM (inactive) | 89.7 µM (inactive)
CCN(CC)C1Oc2cc3c(cc2C(c2cccc(OC)c2OC)C1C)OCO3 (configuration not stated) | 3.42 µM (inactive) | 3.66 µM (inactive) | 4.16 µM (inactive) | 3.93 | 4.01 µM (inactive) | 2.79 µM (inactive) | 13.3 µM (inactive) | 3.05 µM (inactive) | 10.8 µM (inactive) | 3.65 µM (inactive) | 3.16 µM (inactive) | – | 13.1 µM (inactive) | 8.07 µM (inactive) | 4.58 µM (inactive) | 3.23 µM (inactive) | 7.91 µM (inactive) | 6.84 µM (inactive) | 3.63 µM (inactive)
COc1ccc(C2=C(N)c3c(OC)cccc3C2=O)cc1 | > 100 µM (inactive) | 61.4 µM (inactive) | 85.1 µM (inactive) | > 100 | > 100 µM (inactive) | > 100 µM (inactive) | 96.6 µM (inactive) | > 100 µM (inactive) | 22.5 µM (inactive) | > 100 µM (inactive) | 86.1 µM (inactive) | > 100 µM (inactive) | > 100 µM (inactive) | > 100 µM (inactive) | 60.3 µM (inactive) | > 100 µM (inactive) | 37.8 µM (inactive) | – | > 100 µM (inactive)
CCOC(=O)c1nc2ccccc2nc1Oc1cc(OC)c(OC)c(OC)c1 | > 100 µM (inactive) | 27.1 µM (inactive) | 38.1 µM (inactive) | > 100 | > 100 µM (inactive) | > 100 µM (inactive) | 35 µM (inactive) | – | 31.4 µM (inactive) | > 100 µM (inactive) | 45.2 µM (inactive) | > 100 µM (inactive) | > 100 µM (inactive) | > 100 µM (inactive) | > 100 µM (inactive) | > 100 µM (inactive) | > 100 µM (inactive) | > 100 µM (inactive) | > 100 µM (inactive)
CC(=O)N1N=C(c2c(O)ccc3ccccc23)CC1C(=O)c1ccco1 (configuration not stated) | 39.8 µM (inactive) | 34.5 µM (inactive) | 30.8 µM (inactive) | 37.9 | 13.2 µM (inactive) | 20.4 µM (inactive) | 18.4 µM (inactive) | 16.9 µM (inactive) | 29.8 µM (inactive) | 33.8 µM (inactive) | 35.2 µM (inactive) | 28.2 µM (inactive) | – | – | 27.1 µM (inactive) | 47.4 µM (inactive) | 31.1 µM (inactive) | 22.8 µM (inactive) | 34.5 µM (inactive)
[N-]=[N+]=NC1=C(N=[N+]=[N-])c2cccc3cccc(c23)C1=O | > 100 µM (inactive) | > 100 µM (inactive) | > 100 µM (inactive) | > 100 | 39.8 µM (inactive) | > 100 µM (inactive) | 60.1 µM (inactive) | > 100 µM (inactive) | 49.7 µM (inactive) | 76.7 µM (inactive) | > 100 µM (inactive) | > 100 µM (inactive) | > 100 µM (inactive) | > 100 µM (inactive) | 68.2 µM (inactive) | – | > 100 µM (inactive) | > 100 µM (inactive) | 58.9 µM (inactive)
O=c1[nH]c2nc3ccccc3c(=O)n2/c1=C/c1cccs1 | 69.7 µM (inactive) | 67 µM (inactive) | > 100 µM (inactive) | > 100 | > 100 µM (inactive) | > 100 µM (inactive) | > 100 µM (inactive) | > 100 µM (inactive) | > 100 µM (inactive) | > 100 µM (inactive) | > 100 µM (inactive) | > 100 µM (inactive) | > 100 µM (inactive) | > 100 µM (inactive) | > 100 µM (inactive) | > 100 µM (inactive) | > 100 µM (inactive) | > 100 µM (inactive) | –
c1ccc(C2SCc3nc4cc5ccccc5cc4n32)cc1 (configuration not stated) | > 100 µM (inactive) | 60.3 µM (inactive) | 60.4 µM (inactive) | > 100 | > 100 µM (inactive) | > 100 µM (inactive) | > 100 µM (inactive) | > 100 µM (inactive) | > 100 µM (inactive) | > 100 µM (inactive) | 85.5 µM (inactive) | > 100 µM (inactive) | > 100 µM (inactive) | > 100 µM (inactive) | > 100 µM (inactive) | > 100 µM (inactive) | > 100 µM (inactive) | – | –
O=C(O)c1ccc(-c2nc3cc(Cl)ccc3[nH]2)cc1 | > 100 µM (inactive) | > 100 µM (inactive) | > 100 µM (inactive) | > 100 | > 100 µM (inactive) | – | > 100 µM (inactive) | > 100 µM (inactive) | > 100 µM (inactive) | > 100 µM (inactive) | > 100 µM (inactive) | > 100 µM (inactive) | > 100 µM (inactive) | > 100 µM (inactive) | > 100 µM (inactive) | – | – | > 100 µM (inactive) | –
Cc1c(Cl)c(=O)oc2cc(OCC(O)COC(C)C)ccc12 (configuration not stated) | 69.7 µM (inactive) | 48.4 µM (inactive) | 39.9 µM (inactive) | – | 27.5 µM (inactive) | 43 µM (inactive) | – | 23.3 µM (inactive) | 38.7 µM (inactive) | 40.2 µM (inactive) | 64.4 µM (inactive) | 75.7 µM (inactive) | 37.1 µM (inactive) | > 100 µM (inactive) | 65.8 µM (inactive) | 99.5 µM (inactive) | 97.1 µM (inactive) | 19.8 µM (inactive) | 36.1 µM (inactive)
CC(=O)/C(=C\I)c1ccccc1 | 1.69 µM (inactive) | 3.44 µM (inactive) | 2.12 µM (inactive) | 1.83 | 1.89 µM (inactive) | 2.26 µM (inactive) | 1.85 µM (inactive) | 0.481 µM (active) | 23.1 µM (inactive) | 0.995 µM (active) | 19.1 µM (inactive) | 10 µM (inactive) | 18.6 µM (inactive) | 12.1 µM (inactive) | 2.1 µM (inactive) | 3.38 µM (inactive) | 7.91 µM (inactive) | – | 11.2 µM (inactive)
CCOP(=O)(OCC)OC1CC(n2cnc3c(N(CC)CC)ncnc32)OC1CO[Si](C)(C)C(C)(C)C (configuration not stated) | 12 µM (inactive) | 22 µM (inactive) | 16.1 µM (inactive) | 21.4 | 11.2 µM (inactive) | 16.8 µM (inactive) | – | 17.8 µM (inactive) | 19.7 µM (inactive) | 16.6 µM (inactive) | 16.7 µM (inactive) | 20.8 µM (inactive) | 5.86 µM (inactive) | 18.2 µM (inactive) | 16.9 µM (inactive) | 15.5 µM (inactive) | 15.3 µM (inactive) | 17.3 µM (inactive) | 15 µM (inactive)
OC1(c2ccccc2)c2ccccc2N=C2NCCN21 (configuration not stated) | 65.6 µM (inactive) | > 100 µM (inactive) | 72.9 µM (inactive) | 93.1 | 0.424 µM (active) | 83.9 µM (inactive) | > 100 µM (inactive) | – | > 100 µM (inactive) | 74.6 µM (inactive) | 57.5 µM (inactive) | > 100 µM (inactive) | > 100 µM (inactive) | > 100 µM (inactive) | > 100 µM (inactive) | > 100 µM (inactive) | > 100 µM (inactive) | 37.6 µM (inactive) | 56.4 µM (inactive)
Cc1[nH]c2ccccc2c1/C=N/c1ccc(Oc2ccccc2)cc1 | 18.5 µM (inactive) | 22.6 µM (inactive) | 16.3 µM (inactive) | 18.6 | 13.8 µM (inactive) | 16.6 µM (inactive) | 15.6 µM (inactive) | 23.2 µM (inactive) | – | 17.3 µM (inactive) | 14 µM (inactive) | 19.1 µM (inactive) | 14.1 µM (inactive) | 18 µM (inactive) | 13.4 µM (inactive) | 16.1 µM (inactive) | 14.6 µM (inactive) | 15.2 µM (inactive) | 20.4 µM (inactive)
